These results are taken from patent US8575091B1, “Amylin analogues and pharmaceutical compositions thereof” (Novo Nordisk A/S, priority 2012, dated 2013).

For one test, the target named is T1, rat amylin receptor (Rattus norvegicus, UniProt P32214+Q9JJ73).
T1 construct: expressed in transfected cells; host or cells: BHK tk'ts 13 (transient, FuGENE 6), membranes
T1 sequence (P32214 25-479 isoform P32214-2 limits assumed): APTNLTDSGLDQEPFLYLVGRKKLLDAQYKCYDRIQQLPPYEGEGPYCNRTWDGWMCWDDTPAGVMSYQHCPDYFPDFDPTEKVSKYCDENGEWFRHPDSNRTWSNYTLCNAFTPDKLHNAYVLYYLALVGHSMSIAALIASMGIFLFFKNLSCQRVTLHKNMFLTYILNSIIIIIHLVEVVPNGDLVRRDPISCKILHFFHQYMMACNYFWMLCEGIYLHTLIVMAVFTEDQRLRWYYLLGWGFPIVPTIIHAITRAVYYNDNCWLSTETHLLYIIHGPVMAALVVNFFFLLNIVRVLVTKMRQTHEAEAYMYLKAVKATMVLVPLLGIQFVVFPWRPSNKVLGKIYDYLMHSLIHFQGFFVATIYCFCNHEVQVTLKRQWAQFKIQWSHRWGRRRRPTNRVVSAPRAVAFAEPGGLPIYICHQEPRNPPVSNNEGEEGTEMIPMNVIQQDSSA
T1 sequence (Q9JJ73 23-147 partner): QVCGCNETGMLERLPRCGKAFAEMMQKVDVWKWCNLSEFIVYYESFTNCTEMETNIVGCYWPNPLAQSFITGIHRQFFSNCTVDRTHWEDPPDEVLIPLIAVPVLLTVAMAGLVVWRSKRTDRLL
The test can be described thus: Assay (VI) binding to the rat amylin receptor. The following applies: rCTR bind IC50 divided by rAmylin-R bind IC50. How it is done:
Assay (VI)—Determination of the Binding to the Rat Amylin Receptor
The assay was performed as described above (Assay (V)—Determination of binding to the human amylin receptor) with the exception that we used membranes prepared from BHK tk'ts 13 cells that were transiently transfected with the rat calcitonin receptor rat RAMP 3 at an equimolar ratio […]. The BHK tk'ts 13 cells were transiently transfected with rat calcitonin receptor using FuGENE® 6 (Roche), according to the manufacturer's recommendations. Cells were grown in DMEM with 10% FBS and 1% Pen/Strep. Approximately 48 hours after transfection, the cells were harvested and membranes were prepared.

Test [1] addresses T2, human amylin receptor (amylin 3(a) receptor: human calcitonin receptor + RAMP-3) (Homo sapiens, UniProt O60896+P30988).
T2 construct: expressed in transfected cells
T2 sequence (P30988 25-474): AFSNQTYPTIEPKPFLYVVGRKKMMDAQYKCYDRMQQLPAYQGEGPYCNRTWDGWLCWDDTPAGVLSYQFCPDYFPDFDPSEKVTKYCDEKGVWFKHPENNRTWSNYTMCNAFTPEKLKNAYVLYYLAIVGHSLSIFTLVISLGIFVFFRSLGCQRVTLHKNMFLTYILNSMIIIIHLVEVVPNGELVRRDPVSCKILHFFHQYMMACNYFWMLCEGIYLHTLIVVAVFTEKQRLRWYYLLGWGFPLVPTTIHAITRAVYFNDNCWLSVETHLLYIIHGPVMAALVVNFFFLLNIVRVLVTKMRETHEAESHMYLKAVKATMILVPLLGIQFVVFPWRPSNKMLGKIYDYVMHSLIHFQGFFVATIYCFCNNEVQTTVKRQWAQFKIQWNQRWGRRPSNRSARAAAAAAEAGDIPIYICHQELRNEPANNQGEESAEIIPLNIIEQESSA
T2 sequence (O60896 24-148 partner): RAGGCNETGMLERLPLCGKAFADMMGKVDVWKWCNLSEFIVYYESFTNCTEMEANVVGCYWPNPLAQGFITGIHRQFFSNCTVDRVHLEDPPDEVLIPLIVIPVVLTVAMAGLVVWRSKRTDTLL
The test can be described thus: Assay (II)a functional assay, human amylin receptor (CRE luciferase, BHK cells). The format is cell-based.

The target in a further test is T3, human amylin receptor (Homo sapiens, UniProt O60896+P30988).
T3 construct: expressed in transfected cells
T3 sequence (P30988 25-474): T2 sequence (P30988 25-474)
T3 sequence (O60896 24-148 partner): T2 sequence (O60896 24-148 partner)
The test can be described thus: Assay (V) binding to the human amylin receptor (SPA, 125I-rat amylin). Particulars: human binding ratio, included for comparison. The essentials:
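IC50, taken as receptor affinity, came from one-site binding competition analysis of scintillation proximity counts. Amylin 3(a)/CRE-luc cell membranes (35 ng/μL final) were mixed with SPA beads (0.05 mg/well) in 50 mM Hepes pH 7.4 containing CaCl2, MgCl2, 0.1% OA and 0.02% Tween20.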

Setting [2] is: Table 6, human functional selectivity (hCTR EC50 / hAmylin-R EC50).

Numbered stars: 1 amine (or outer) side, 2 acyl side, 3 side chain; on linkers, the order of the positions; unused ones are H or OH. Bridge positions count the residues as written; N and C are the ends. Side chains are listed from the residue outwards. Peptide text beside a SMILES is read from it. * marks the point of attachment. C20 diacid = O=C(O)CCCCCCCCCCCCCCCCCCC(=O)*; γGlu = O=C(O)[C@H](CCC(=O)[*:2])N[*:1]; AEEA = NCCOCCOCC(=O)O

As to `CC[C@H](C)[C@H](NC(=O)[C@H](C)NC(=O)CNC(=O)[C@H](Cc1ccccc1)NC(=O)[C@H](CC(N)=O)NC(=O)[C@@H]1CCCN1C(=O)[C@H](CO)NC(=O)[C@H](CO)NC(=O)[C@H](Cc1c[nH]cn1)NC(=O)[C@H](CCCNC(=N)N)NC(=O)[C@H](CC(C)C)NC(=O)[C@H](Cc1ccccc1)NC(=O)[C@H](CCC(=O)O)NC(=O)[C@H](C)NC(=O)[C@H](CC(C)C)NC(=O)[C@H](CCCNC(=N)N)NC(=O)[C@H](CCC(N)=O)NC(=O)[C@@H](NC(=O)[C@H](C)NC(=O)[C@@H]1CSSC[C@H](NC(=O)[C@H](CCCCN)NC(=O)COCCOCCNC(=O)COCCOCCNC(=O)CC[C@H](NC(=O)CCCCCCCCCCCCCCCCCCC(=O)O)C(=O)O)C(=O)N[C@@H](CC(N)=O)C(=O)N[C@@H]([C@@H](C)O)C(=O)N[C@@H](C)C(=O)N[C@@H]([C@@H](C)O)C(=O)N1)[C@@H](C)O)C(=O)N1CCC[C@H]1C(=O)N[C@@H](CO)C(=O)N[C@@H](CO)C(=O)N[C@H](C(=O)N[C@@H](CC(N)=O)C(=O)N[C@H](C(=O)NCC(=O)N[C@@H](CO)C(=O)N[C@@H](CC(N)=O)C(=O)N[C@H](C(=O)N1CCC[C@H]1C(N)=O)[C@@H](C)O)C(C)C)[C@@H](C)O` [Example 20] ({C20 diacid-γGlu-AEEA-AEEA}-KCNTATCATQRLAEFLRHSSPNFGAIPSSTNVGSNTP-NH2; disulfide 2-7), the “Ratio rCT/rAmylin binding” value at rat amylin receptor was found to be 6.4. In addition, in test [1] (setting [2]), the “Ratio hCT/hAmylin funct.” value was found to be 3.6. Besides, the “Ratio hCT/hAmylin binding” value on human amylin receptor worked out at 3.6.
Consider `CC[C@H](C)[C@H](NC(=O)[C@H](C)NC(=O)CNC(=O)[C@H](Cc1ccccc1)NC(=O)[C@H](CC(N)=O)NC(=O)[C@@H]1CCCN1C(=O)[C@H](CO)NC(=O)[C@H](CO)NC(=O)[C@H](Cc1c[nH]cn1)NC(=O)[C@H](CCCNC(=N)N)NC(=O)[C@H](CC(C)C)NC(=O)[C@H](Cc1ccccc1)NC(=O)[C@H](Cc1c[nH]cn1)NC(=O)[C@H](C)NC(=O)[C@H](CC(C)C)NC(=O)[C@H](CCCNC(=N)N)NC(=O)[C@H](CCC(N)=O)NC(=O)[C@@H](NC(=O)[C@H](C)NC(=O)[C@@H]1CSSC[C@H](NC(=O)[C@@H](N)CCCCNC(=O)CC[C@H](NC(=O)CCCCCCCCCCCCCCCCCCC(=O)O)C(=O)O)C(=O)N[C@@H](CC(N)=O)C(=O)N[C@@H]([C@@H](C)O)C(=O)N[C@@H](C)C(=O)N[C@@H]([C@@H](C)O)C(=O)N1)[C@@H](C)O)C(=O)N1CCC[C@H]1C(=O)N[C@@H](CO)C(=O)N[C@@H](CO)C(=O)N[C@H](C(=O)N[C@@H](CC(N)=O)C(=O)N[C@H](C(=O)NCC(=O)N1CCC[C@H]1C(=O)N[C@@H](CC(N)=O)C(=O)N[C@H](C(=O)N1CCC[C@H]1C(N)=O)[C@@H](C)O)C(C)C)[C@@H](C)O` [Example 115] (H-K([γGlu-C20 diacid])CNTATCATQRLAHFLRHSSPNFGAIPSSTNVGPNTP-NH2; disulfide 2-7 (inferred); N-terminus and C-terminus assumed), for which the “Ratio rCT/rAmylin binding” value at rat amylin receptor was determined as 3.0. Further, the “Ratio hCT/hAmylin funct.” value in test [1] (setting [2]) worked out at 0.8. At human amylin receptor, the “Ratio hCT/hAmylin binding” value is 1.2.
Regarding `CC[C@H](C)[C@H](NC(=O)[C@@H]1CCCN1C(=O)CNC(=O)[C@H](Cc1ccccc1)NC(=O)[C@H](CC(N)=O)NC(=O)[C@@H]1CCCN1C(=O)[C@H](CO)NC(=O)[C@H](CO)NC(=O)[C@H](Cc1c[nH]cn1)NC(=O)[C@H](CCCNC(=N)N)NC(=O)[C@H](CC(C)C)NC(=O)[C@H](Cc1ccccc1)NC(=O)[C@H](CCC(=O)O)NC(=O)[C@H](C)NC(=O)[C@H](CC(C)C)NC(=O)[C@H](CCCNC(=N)N)NC(=O)[C@H](CCC(N)=O)NC(=O)[C@@H](NC(=O)[C@H](C)NC(=O)[C@@H]1CSSC[C@H](NC(=O)[C@H](CCCCN)NC(=O)CC[C@H](NC(=O)CCCCCCCCCCCCCCCCCCC(=O)O)C(=O)O)C(=O)N[C@@H](CC(N)=O)C(=O)N[C@@H]([C@@H](C)O)C(=O)N[C@@H](C)C(=O)N[C@@H]([C@@H](C)O)C(=O)N1)[C@@H](C)O)C(=O)N[C@@H](CC(C)C)C(=O)N1CCC[C@H]1C(=O)N1CCC[C@H]1C(=O)N[C@H](C(=O)N[C@@H](CC(N)=O)C(=O)N[C@H](C(=O)NCC(=O)N[C@@H](CO)C(=O)N[C@@H](CC(N)=O)C(=O)N[C@H](C(=O)N1CCC[C@H]1C(N)=O)[C@@H](C)O)C(C)C)[C@@H](C)O` [Example 4] ({C20 diacid-γGlu}-KCNTATCATQRLAEFLRHSSPNFGPILPPTNVGSNTP-NH2; disulfide 2-7), the “Ratio rCT/rAmylin binding” value on rat amylin receptor amounted to 3.1. For the same compound, the “Ratio hCT/hAmylin funct.” value in test [1] (setting [2]) and in test [1] (hCTR funct. EC50 divided by hAmylin-R funct. EC50) was 1.2 throughout. Besides, the “Ratio hCT/hAmylin binding” value at human amylin receptor is 2.1.
In the case of `CC[C@H](C)[C@H](NC(=O)[C@H](C)NC(=O)CNC(=O)[C@H](Cc1ccccc1)NC(=O)[C@H](CC(N)=O)NC(=O)[C@@H]1CCCN1C(=O)[C@H](CO)NC(=O)[C@H](CO)NC(=O)[C@H](Cc1c[nH]cn1)NC(=O)[C@H](CCCNC(=N)N)NC(=O)[C@H](CC(C)C)NC(=O)[C@H](Cc1ccccc1)NC(=O)[C@H](CC(=O)O)NC(=O)[C@H](C)NC(=O)[C@H](CC(C)C)NC(=O)[C@H](CCCNC(=N)N)NC(=O)[C@H](CCC(N)=O)NC(=O)[C@@H](NC(=O)[C@H](C)NC(=O)[C@@H]1CSSC[C@H](NC(=O)[C@@H](N)CCCCNC(=O)CC[C@H](NC(=O)CCCCCCCCCCCCCCCCCCC(=O)O)C(=O)O)C(=O)N[C@@H](CC(N)=O)C(=O)N[C@@H]([C@@H](C)O)C(=O)N[C@@H](C)C(=O)N[C@@H]([C@@H](C)O)C(=O)N1)[C@@H](C)O)C(=O)N1CCC[C@H]1C(=O)N[C@@H](CO)C(=O)N[C@@H](CO)C(=O)N[C@H](C(=O)N[C@@H](CC(N)=O)C(=O)N[C@H](C(=O)NCC(=O)N1CCC[C@H]1C(=O)N[C@@H](CCC(=O)O)C(=O)N[C@H](C(=O)N[C@@H](Cc1ccc(O)cc1)C(N)=O)[C@@H](C)O)C(C)C)[C@@H](C)O` [Example 123] (H-K([γGlu-C20 diacid])CNTATCATQRLADFLRHSSPNFGAIPSSTNVGPETY-NH2; disulfide 2-7 (inferred); N-terminus and C-terminus assumed), the “Ratio rCT/rAmylin binding” value on rat amylin receptor (Table 7b) and at rat amylin receptor was 62.0 throughout. For the same compound, in test [1] (setting [2]), the “Ratio hCT/hAmylin funct.” value is 3.9.
